Experimental data from article PMC1208959 (Virology Journal, 2005).

For CC[C@H](C)[C@H](NC(=O)[C@H](Cc1ccc(O)cc1)NC(=O)[C@H](CC(=O)O)NC(=O)[C@H](CCCCN)NC(=O)[C@H](CO)NC(=O)[C@H](CCC(N)=O)NC(=O)[C@H](CCC(N)=O)NC(=O)[C@H](CC(C)C)NC(=O)[C@H](CO)NC(=O)[C@H](CCC(N)=O)NC(=O)[C@H](CC(N)=O)NC(=O)[C@H](CCSC)NC(=O)[C@H](CO)NC(=O)[C@H](CO)NC(=O)[C@@H](NC(=O)[C@H](CCC(N)=O)NC(=O)[C@H](CO)NC(=O)[C@H](CO)NC(=O)[C@@H](NC(=O)[C@H](CC(=O)O)NC(=O)[C@@H](NC(=O)[C@H](CCCCN)NC(=O)CCOCCOCCOCCOCCOCCOCCOCCOCCOCCOCCOCCOCCNC(C)=O)C(C)C)[C@@H](C)CC)[C@@H](C)CC)C(=O)N[C@@H](CCCCN)C(=O)N[C@@H](CCC(=O)O)C(=O)N[C@@H](C)C(=O)N[C@@H](CCC(N)=O)C(=O)N[C@@H](CCCNC(=N)N)C(=O)N[C@@H](CC(C)C)C(=O)N[C@@H](CC(C)C)C(=O)N[C@@H](CC(=O)O)C(=O)N[C@H](C(=O)N[C@H](C(=O)N[C@@H](CC(N)=O)C(=O)N1CCC[C@H]1C(=O)N[C@@H](CO)C(=O)N[C@@H](CC(C)C)C(N)=O)C(C)C)[C@@H](C)O [N-PEG NiV FC2], the “number of syncytia per cell monolayer (in words)” value (live NiV) was “largely unchanged”, the “syncytial morphology and size (in words)” value (live NiV) was “dramatic and robust reduction in syncytial size” and the “number of syncytia per cell monolayer (in words)” value (live HeV) was “largely unchanged”. For the same compound, the “syncytial morphology and size (in words)” value (live HeV) was “dramatic and robust reduction in syncytial size”.
